Measurements published in publication PMC8287028 (Frontiers in Veterinary Science, 2021).
pKi: −log10 of the molar value. Several values for one entry are separate records, joined by “and”; a condition that tells them apart may be missing. Identical values can stand only once.

Experiments:
prothrombin time = assay: Prothrombin time (PT) on citrated plasma of dosed dogs; format: in vivo, dog
Description: Coagulation assays were performed on platelet-poor, citrated plasma samples by a reference laboratory (Comparative Coagulation Laboratory, Animal Health Diagnostic Center, Ithaca, NY). […] The assay is configured with a bovine activated Factor X reagent that is added in excess to the test plasma and a chromogenic substrate of Factor Xa (STA Liquid anti-Xa, Diagnostica Stago). Residual, uninhibited Factor Xa cleaves the chromogenic substrate such that the inverse of the color change in the reaction mixture is proportional to the drug concentration in the test plasma. […] Assay controls, consisting of human plasma spiked with apixaban (STA Apixaban Controls, Diagnostica Stago) were analyzed before each batch of test samples to confirm assay performance. The apixaban levels in calibrators and controls are defined by the manufacturer from an internal reference assayed by HPLC-MS. […] A mechanical endpoint method (STA Compact, Diagnostica Stago) and human coagulation reagents were used to measure prothrombin time (Thromboplastin LI, Helena Diagnostics, Beaumont, TX) and activated partial thromboplastin time (Dade Actin FS, Dade Behring, Newark, DE). […] Tissue-factor (1:50,000 final dilution) activated TEG was performed using standard equipment (TEG-5000, Haemonetics, Braintree, MA) as previously reported ([35]), with assays conducted per established guidelines ([36]), with a modification to eliminate the rest time to facilitate rapid sample processing. Thromboelastography assays were conducted by experienced operators using four TEG channels and tracings terminated after maximum amplitude was established. Four values were extracted from TEG tracings: reaction time (R-time), clot formation time (K-time), clot formation angle (alpha), and maximum amplitude (MA).
Pairwise comparisons between continuous variables were conducted with Wilcoxon matched-pairs signed rank test, while comparisons of more than two groups were conducted using the Friedman test with Dunn's post-hoc adjustment. […]

healthy mixed-breed dogs [1] = assay: Monitoring for adverse reactions after IV and PO apixaban; conditions: study period
Excerpt: Additionally, drug metabolism might be different in beagles compared with mixed-breed dogs ([33], [34]). […] The study was approved by the Institutional Animal Care and Use Committee (IACUC) at Cornell University College of Veterinary Medicine (Protocol #2019-0099). All dogs were housed at Cornell University and cared for by licensed veterinarians and technicians according to established protocols. All dogs were permanently adopted into private homes after study completion.
On the days of drug administration, 5 Fr × 25 cm trilumen wire-guided catheters (Mila International, Erlanger, KY) were aseptically placed in external jugular veins by modified-Seldinger technique to facilitate atraumatic, repeat blood sample collection. Dogs were sedated with IV butorphanol 0.2 mg/kg and dexmedetomidine 5 μg/kg (Zoetis, Parsippany, NJ) to facilitate catheter placement. Jugular catheters were secured using 3-0 nylon sutures, protected with sterile bandages, and flushed with 0.9% saline (no heparin was used). […] Dogs were closely monitored for adverse reactions throughout the sample collection period. […] After each sample collection, one citrate anticoagulated whole blood sample was analyzed using thromboelastography (TEG), while the second citrate sample was centrifuged (1,370 g, 10 min, 20°C), the plasma separated, split into two aliquots and then frozen at −80°C pending batch analyses.

healthy mixed-breed dogs [2] = assay: Complete blood count before and after apixaban; format: in vivo, dog; set-up: RBC: unit not given beside the values; Neut / Lymph / Mono / Eos / Baso / HCT / MCV / MCH / MCHC: unit not given here; conditions: for Baso / Eos / HCT / Hgb / Lymph / MCH / MCHC / MCV / Mono / Neut / RBC / WBC: individual dogs (Dog 1-6); for WBC: in 10^3/µL (unit assumed)
dog factor Xa = conditions: in vitro, isolated factor Xa, cited from earlier work
[3] = cited from earlier work

COc1ccc(-n2nc(C(N)=O)c3c2C(=O)N(c2ccc(N4CCCCC4=O)cc2)CC3)cc1 [apixaban]
PT versus baseline (prothrombin time; IV 0.18 mg/kg, at 5, 15, 30 and 60 min): significantly prolonged | concentration required to double the PT from baseline (prothrombin time; IV, estimate from the regression equation line of Figure 2B): 2,485 ng/ml | PT versus baseline (prothrombin time; PO 0.2 mg/kg, at 4, 6 and 8 h): significantly prolonged | adverse reactions, including signs of abnormal bleeding or bruising (healthy mixed-breed dogs [1]): no adverse reactions | Baso (healthy mixed-breed dogs [2]; +24h after IV apixaban): 0.1 (2×) and 0.0 (4×) | Eos (healthy mixed-breed dogs [2]; +24h after IV apixaban): 0.3 (2×) and 0.4 (2×) and 0.7 (2×) | HCT (healthy mixed-breed dogs [2]; +24h after IV apixaban): 53 and 52 (2×) and 54 (2×) and 57 | Hgb (healthy mixed-breed dogs [2]; +24h after IV apixaban): 17.7 and 17.2 and 16.8 and 17.5 (2×) and 18.3 | Lymph (healthy mixed-breed dogs [2]; +24h after IV apixaban): 2.3 and 2 (2×) and 3.3 and 1.6 and 3.7 | MCH (healthy mixed-breed dogs [2]; +24h after IV apixaban): 25 (3×) and 23 and 24 (2×) | MCHC (healthy mixed-breed dogs [2]; +24h after IV apixaban): 33 (2×) and 32 (4×) | MCV (healthy mixed-breed dogs [2]; +24h after IV apixaban): 73 and 75 and 71 and 74 and 76 (2×) | Mono (healthy mixed-breed dogs [2]; +24h after IV apixaban): 0.3 (2×) and 0.6 and 0.5 (3×) | Neut (healthy mixed-breed dogs [2]; +24h after IV apixaban): 4.1 and 5.8 and 5.6 (2×) and 5.1 and 8.0 | RBC (healthy mixed-breed dogs [2]; +24h after IV apixaban): 7.2 (2×) and 6.9 and 7.3 (2×) and 7.4 | WBC (healthy mixed-breed dogs [2]; +24h after IV apixaban): 7.1 and 8.8 and 9.6 and 8.9 and 7.6 and 13 | Baso (healthy mixed-breed dogs [2]; +30h after PO apixaban): 0 (3×) and 0.1 and 0.0 (2×) | Eos (healthy mixed-breed dogs [2]; +30h after PO apixaban): 0.3 (2×) and 0.2 (2×) and 0.4 and 0.6 | HCT (healthy mixed-breed dogs [2]; +30h after PO apixaban): 56 and 55 and 52 (2×) and 46 and 50 | Lymph (healthy mixed-breed dogs [2]; +30h after PO apixaban): 3.2 and 2 (2×) and 1.6 and 0.8 and 3.6 | MCH (healthy mixed-breed dogs [2]; +30h after PO apixaban): 24 (2×) and 25 (2×) and 23 (2×) | MCHC (healthy mixed-breed dogs [2]; +30h after PO apixaban): 33 (4×) and 32 (2×) | MCV (healthy mixed-breed dogs [2]; +30h after PO apixaban): 72 (2×) and 76 and 70 and 75 and 74 | Mono (healthy mixed-breed dogs [2]; +30h after PO apixaban): 0.5 (4×) and 0.4 and 0.3 | Neut (healthy mixed-breed dogs [2]; +30h after PO apixaban): 6.1 (2×) and 5.4 and 7.9 and 5.7 and 7.3 | WBC (healthy mixed-breed dogs [2]; +30h after PO apixaban): 10.1 and 8.3 and 10.8 and 8 and 7.6 and 12.1 | RBC (healthy mixed-breed dogs [2]; +30h after PO apixaban, in 10^6/µL (unit assumed)): 7.8 and 7.3 and 7.4 and 6.2 and 7 and 7.1 | Hgb (healthy mixed-breed dogs [2]; +30h after PO apixaban, in g/dL (unit assumed)): 18.6 and 18 and 17 and 15.1 and 16.2 and 16.9 | CBC parameters (healthy mixed-breed dogs [2]; IV, baseline versus 24 h): No changes | mean corpuscular hemoglobin concentration (healthy mixed-breed dogs [2]; PO, baseline versus 30 h): significant reduction | inhibitor constant (Ki) (dog factor Xa): 0.78 ng/mL | pKi (dog factor Xa; read-out: inhibitor constant (Ki)): 8.77 | protein-bound [3]: over 90% | time to maximal plasma concentrations ([3]; dogs, 0.5 mg/kg IV or PO): 2.8 h | oral bioavailability ([3]; dogs, 0.5 mg/kg, liquid formulation with methylcellulose and polysorbate 80): 80% | standard PT ([3]; dogs, Thromboplastin C-Plus reagent): not the standard PT | factor Xa-dependent clotting time test (HEPTEST) ([3]; dogs): prolonged
